The values below come from patent publication US8440701B2, “Trisubstituted 1,2,4 triazoles” (Janssen Pharmaceutica NV, priority 2007, dated 2013).

The target of data set [1] is T1, hα7-wt nAChR (Homo sapiens, UniProt P36544).
T1 construct: expressed in transfected cells; host or cells: GH4C1 cells (recombinant, stably over-expressing)
The experiment in a line: Whole-cell voltage-clamp recording, PAM type classification. Format: cell-based. Also noted: key: Type 1 compounds enhance the effect size of the current elicited by 1 mM choline but minimally alter the kinetics of the receptor.; Type 2 compounds enhance the effect size of the current elicited by 1 mM choline while reducing the rate and/or the extent of desensitization.; Type 3 compounds enhance the effect size of the current elicited by 1 mM choline. When tested at higher concentrations up to 10 μM they completely inhibit desensitization, in particular a 1 mM choline application of 250 milliseconds.; Type 4 compounds allow for an initial desensitization of the receptor followed by a re-opening of the receptor during agonist application. To be noted: qualitative kinetic properties; 1 mM choline; hα7-wt nAChR-expressing GH4C1 cells. The protocol: The compounds of the present invention are classified as type 1-4, based on qualitative kinetic properties, as determined by whole-cell voltage-clamp recordings. This classification is based on the effect of an α7 PAM compound, as described hereinbefore, on the signal elicited by an agonist application. In particular, said agonist is choline at a concentration of 1 mM. In a preferred experimental setting, said α7 PAM compound and choline are simultaneously applied to the cell, as described hereinafter. Desensitization is defined as the closure of the receptor upon activation during the application of the agonist in whole-cell voltage-clamp electrophysiology measurements seen as the reduction of the […] current after initial activation by the agonist.
The definition of the PAM types 1-4 is described hereinafter: • Type 1 compounds enhance the effect size of the current elicited by 1 mM choline but minimally alter the kinetics of the receptor. In particular, the rate and the extent of desensitization, elicited by the agonist, is not affected. The compound-modulated response to 1 mM choline, therefore, is a close to linear scaling of the 1 mM choline response in absence of the α7 PAM compound. • Type 2 compounds enhance the effect size of the current elicited by 1 mM choline while reducing the rate and/or the extent of desensitization. • Type 3 compounds enhance the effect size of the current elicited by 1 mM choline. […] At low-potency concentrations of the α7 PAM compound, the agonist-induced activation, which is followed by desensitization, can still be separated from the compound-induced re-opening as an initial inward current-maximum. At higher potency concentrations of the α7 PAM compound, the re-opening occurs faster than the closure due to desensitization so that the initial current-maximum disappears.
The compounds of the present invention also have a potentiating effect on the response to choline when measured by whole-cell voltage-clamp electrophysiology in GH4C1 cells stably over-expressing the human wild-type α7 receptor, as described hereinafter.
Whole-Cell Voltage-Clamp Recording
Whole-cell voltage-clamp recording from mammalian cells has provided a powerful means of assessing the function of membrane proteins thought to be subunits of ligand-gated ion channels. Activation of such proteins by endogenous or exogenous ligands causes opening of a pore associated with the receptor through which ions flow down their electrochemical gradient. In the case of the hα7-wt nAChR-expressing GH4C1 recombinant cell line the preferential permeability to calcium of this receptor means that calcium flows into the cell upon activation by ACh, choline and other nicotinic ligands giving rise to a calcium current. Since this receptor rapidly desensitizes in the presence of an agonist it is important that an application system is used which is capable of very rapid switching of solutions (<100 ms) to prevent partial or full desensitisation of receptor responses coincident with the time of agonist application. Consequently, a second convenient technique to assess the enhancement of nicotinic efficacy is whole-cell voltage-clamp recording from hα7-wt nAChR-expressing GH4C1 cells coupled with a rapid-application system.
• The external recording solution consisted of 152 mM NaCl, 5 mM KCl, 1 mM MgCl2, 1 mM Calcium, 10 mM HEPES; pH 7.3. The internal recording solution consisted of 140 mM CsCl, 10 mM HEPES, 10 mM EGTA, 1 mM MgCl2, pH 7.3. • b) Patch-clamp recording was carried out using a Patch-clamp amplifier (Multiclamp 700A, Axon Instruments, CA, USA). The membrane potential of hα7-wt nAChR-expressing GH4C1 cells was voltage-clamped in the whole cell configuration (Hamill et al, 1981) with a borosilicate glass electrode of 1.5-3 MΩ tip resistance when filled with the internal recording solution. […]

The target of data set [2] is T1, hα7-wt nAChR. The experiment in a line: Ca2+ flux imaging (FDSS), potentiation of choline response. The format is cell-based. Particulars: for EC50: hα7-wt nAChR-expressing GH4C1 cells, potentiation of 100 μM choline, compounds 0.01 μM to 30 μM; for Emax: GH4-C1, maximal effect, efficacy of 100 μM choline defined as 100% in the absence of a PAM, GH4C1 cells. On the procedure:
Ca^2+ Flux Imaging (FDSS)
• Hanks buffered saline solution (HBSS, Invitrogen, Belgium), supplemented with 10 mM HEPES (Invitrogen, Belgium), CaCl2 to a final concentration of 5 mM, 0.1% Bovine serum albumin (Sigma-Aldrich NV, Belgium). b) Calcium-Sensitive Dye—Fluo-4AM • Fluo-4AM (Molecular Probes, USA) was dissolved in DMSO containing 10% Pluronic acid (Molecular Probes, USA) to give a stock solution which was diluted in assay buffer supplemented with 5 mM probenicid (Sigma, Aldrich NV, Belgium) to give a final concentration of 2 μM. c) 384-Well Plates • Black 384 well plate black/clear plates, PDL pre-coated (Corning, Incorporated, USA) d) Calcium Flux Measurement • A Functional drug screening system (FDSS, Hamamatsu) was used to measure intracellular free-calcium flux signals. Method
Monolayers of hα7-wt nAChR-expressing GH4C1 cells were grown in multi-well plates, in particular black-sided, transparent bottomed 384 well plates coated with poly-D-lysine for 24 hours prior to loading with a fluorescent calcium indicator, in a particular embodiment loading with fluo-4AM for up to 120 minutes.
PAM activity was detected in real time by applying the compound to be tested to the loaded cells along with a α7 nicotinic receptor agonist during constant monitoring of the cellular calcium mobilization by fluorescence in a FDSS. Compounds giving peak fluorescent responses greater than the response due to agonist alone, were considered to be α7 nAChR PAM's. In a particular embodiment, the α7 nicotinic receptor agonist was choline, a more particular embodiment choline applied at a sub-maximal concentration of 100 μM. In a further setting of the present invention the compounds to be tested were applied prior to the α7 nicotinic receptor agonist, in a particular embodiment up to 10 minutes prior to the agonist.
A control response to choline was calculated on each plate from the difference in peak in fluorescence in wells receiving either choline or assay buffer alone. Compounds of the present invention were tested at a concentration range from 0.01 μM to 30 μM. Compounds were considered to have an interesting activity when they potentiated the choline signal at least with 200% when tested at a concentration of 30 μM (the efficacy of 100 μM choline was defined as 100% in the absence of a PAM).
EC50 values (potency), maximal effect (% efficacy), and Hill slopes were estimated by fitting the sigmoidal equation to the data using GraphPad Prism (GraphPad Software, Inc., San Diego, Calif.). An EC50 (or pEC50) was determined as a concentration relating to half the maximal effect, when a clear sigmoidal curve with top plateau was obtained.

T1 sequence (P36544 23-502): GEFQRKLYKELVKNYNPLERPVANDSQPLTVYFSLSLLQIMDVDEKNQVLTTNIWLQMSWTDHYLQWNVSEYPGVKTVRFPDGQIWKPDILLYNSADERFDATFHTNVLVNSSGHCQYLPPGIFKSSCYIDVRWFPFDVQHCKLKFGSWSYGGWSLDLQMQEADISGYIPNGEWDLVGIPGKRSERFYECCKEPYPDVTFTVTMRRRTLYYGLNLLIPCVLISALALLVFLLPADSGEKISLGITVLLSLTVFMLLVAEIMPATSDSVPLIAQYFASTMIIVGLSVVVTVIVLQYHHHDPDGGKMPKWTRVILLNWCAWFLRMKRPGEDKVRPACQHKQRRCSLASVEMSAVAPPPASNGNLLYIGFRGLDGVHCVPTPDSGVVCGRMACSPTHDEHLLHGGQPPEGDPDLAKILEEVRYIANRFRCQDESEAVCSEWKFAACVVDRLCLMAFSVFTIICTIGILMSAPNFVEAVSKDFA

`CCCCC(O)Cn1nc(Nc2ccc(F)c(F)c2)nc1-c1cc(C)nc(C)c1` (single isomer, unassigned; (+)) [Compound E5, (+)-1-[3-(3,4-Difluoro-phenylamino)-5-(2,6-dimethyl-pyridin-4-yl)-[1,2,4]triazol-1-yl]-hexan-2-ol] registered a melting point of 135 °C. Besides, the PAM_type on hα7-wt nAChR [1] was 2. Further, the 50% effective concentration (EC50) on hα7-wt nAChR [2] was 204 nM.
`CC[C@H](O)Cn1nc(Nc2ccc(F)c(F)c2)nc1-c1cc(C)nc(C)c1` [Compound E1, (S)-1-[3-(3,4-Difluoro-phenylamino)-5-(2,6-dimethyl-pyridin-4-yl)-[1,2,4]triazol-1-yl]-butan-2-ol] displayed a melting point of 166.04 °C. In addition, at hα7-wt nAChR [1], the PAM_type turned out to be 2. The EC50 on hα7-wt nAChR [2] is 589 nM.
The corresponding values for `CC[C@H](O)Cn1nc(Nc2ccc(F)c(C)c2)nc1-c1ccnc(C)c1` [Compound E19, (S)-1-[3-(4-Fluoro-3-methyl-phenylamino)-5-(2-methyl-pyridin-4-yl)-[1,2,4]triazol-1-yl]-butan-2-ol] are 133.85 °C, 2 and 1950 nM.
`CCC(O)Cn1nc(Nc2ccc(F)c(F)c2)nc1-c1ccnc(NCCOC)c1` (centres unmarked) [Compound E9] gave a melting point of 137.06 °C. For the same molecule, on hα7-wt nAChR [1], the PAM_type is 2. Also, at hα7-wt nAChR [2], the Emax turned out to be 1000% and the EC50 was 933 nM.
The molecule `CCC(O)Cn1nc(Nc2ccc(F)c(F)c2)nc1-c1ccnc(C)c1` (single isomer, unassigned) [Compound E6] showed a melting point of 142.72 °C. The PAM_type at hα7-wt nAChR [1] is 2. For the same molecule, the EC50 on hα7-wt nAChR [2] is 955 nM.
Molecule `CCNc1cc(-c2nc(Nc3ccc(F)c(F)c3)nn2CC(O)CC)ccn1` (centres unmarked) [Compound E25] gave a melting point of 156.18 °C. In addition, the PAM_type on hα7-wt nAChR [1] was 1. Further, the concentration giving a half-maximal response (EC50) at hα7-wt nAChR [2] was 692 nM.
`CCC(O)Cn1nc(Nc2ccc(F)c(F)c2)nc1-c1ccnc(C)c1` (single isomer, unassigned) [Compound E26] had a melting point of 145.29 °C. On hα7-wt nAChR [1], the PAM_type worked out at 1. Also, at hα7-wt nAChR [2], the maximal response (Emax) turned out to be 580% and the EC50 is 776 nM.
In turn, `CCC(O)Cn1nc(Nc2cc(OC)cc(C(F)(F)F)c2)nc1-c1ccnc(C)c1` (single isomer, unassigned) [Compound E28] showed a melting point of 117.16 °C. Further, the PAM_type at hα7-wt nAChR [1] is 2. Besides, on hα7-wt nAChR [2], the concentration giving a half-maximal response (EC50) is 1780 nM.
The corresponding values for `CC[C@H](O)Cn1nc(Nc2cc(OC)cc(C(F)(F)F)c2)nc1-c1cc(C)nc(C)c1` [Compound E30, (S)-1-[5-(2,6-Dimethyl-pyridin-4-yl)-3-(3-methoxy-5-trifluoromethyl-phenylamino)-[1,2,4]triazol-1-yl]-butan-2-ol] are 166.05 °C, 2 and 200 nM.
On to `CCCC(O)Cn1nc(Nc2ccc(F)c(F)c2)nc1-c1ccnc(C)c1` (single isomer, unassigned) [Compound E15], for which the melting point worked out at 133.1 °C. Besides, the PAM_type on hα7-wt nAChR [1] was 1. The concentration giving a half-maximal response (EC50) on hα7-wt nAChR [2] is 676 nM.
In turn, `CCC(O)Cn1nc(Nc2cc(OC)cc(C(F)(F)F)c2)nc1-c1ccnc(C)c1` (single isomer, unassigned) [Compound E20] came in with a melting point of 120.54 °C. At hα7-wt nAChR [1], the PAM_type came out at 4. Besides, the EC50 at hα7-wt nAChR [2] is 214 nM.
In turn, `CCNc1cc(-c2nc(Nc3cccc(Cl)c3)nn2C[C@H](O)CC)ccn1` [Compound E29, (R)-1-[3-(3-chloro-phenylamino)-5-(2-ethylamino-pyridin-4-yl)-[1,2,4]triazol-1-yl]-butan-2-ol] had a melting point of 158.66 °C. Also, the PAM_type at hα7-wt nAChR [1] was determined as 1. Further, at hα7-wt nAChR [2], the half-maximal effective concentration (EC50) is 1020 nM.
`CCC(O)Cn1nc(Nc2cccc(Cl)c2)nc1-c1ccnc(C)c1` (centres unmarked) [Compound E17] came in with a melting point of 144.31 °C. Besides, the PAM_type at hα7-wt nAChR [1] is 2. Also, the EC50 at hα7-wt nAChR [2] was 1200 nM.
